Results published in patent US20040034099A1, “Pharmaceutical composition” (priority 2002, published 2004).

Assay: Excipient screen (fillers, disintegrants, glidants, lubricants): tablets evaluated at accelerated conditions
Format: physicochemical
Conditions: tablets at accelerated conditions (40° C./75% RH); for filler the active ingredient is compatible with: physical characteristics and content of active ingredient
Experimental: Experiments to screen fillers, disintegrants, glidants and lubricants were conducted for the composition according to the present invention. Tablets were evaluated for physical characteristics and content of active ingredient at accelerated conditions (40° C./75% RH). The assay values were analysed statistically. […] Of all lubricants examined, chlorambucil was most compatible with stearic acid.

| Structure (SMILES) | filler the active ingredient is compatible with | lubricant the active ingredient is most compatible with (of all lubricants examined) |
| --- | --- | --- |
| N[C@@H](Cc1ccc(N(CCCl)CCCl)cc1)C(=O)O [melphalan, 4-[bis(2-chloroethyl)amino]-L-phenylalanine] | microcrystalline cellulose |  |
| O=C(O)CCCc1ccc(N(CCCl)CCCl)cc1 [chlorambucil, 4-[bis(2-chloroethyl)amino]-benzenebutanoic acid] | a mixture of anhydrous lactose and microcrystalline cellulose | stearic acid |
